Source: US8354431B2, “Aryl carboxylic acid cyclohexyl amide derivatives” (Novartis AG, priority 2007, dated 2013)

Key:
[1] = target: T1, hCCR2b (Homo sapiens, UniProt P41597); assay: CCR2 membrane binding assay (SPA, [125I] MCP-1); settings: table does not name the assay; b437 says 'in these assays'
T1 construct: expressed in transfected cells; host or cells: CHO-dukX
T1 sequence (P41597 1-360 isoform P41597-2): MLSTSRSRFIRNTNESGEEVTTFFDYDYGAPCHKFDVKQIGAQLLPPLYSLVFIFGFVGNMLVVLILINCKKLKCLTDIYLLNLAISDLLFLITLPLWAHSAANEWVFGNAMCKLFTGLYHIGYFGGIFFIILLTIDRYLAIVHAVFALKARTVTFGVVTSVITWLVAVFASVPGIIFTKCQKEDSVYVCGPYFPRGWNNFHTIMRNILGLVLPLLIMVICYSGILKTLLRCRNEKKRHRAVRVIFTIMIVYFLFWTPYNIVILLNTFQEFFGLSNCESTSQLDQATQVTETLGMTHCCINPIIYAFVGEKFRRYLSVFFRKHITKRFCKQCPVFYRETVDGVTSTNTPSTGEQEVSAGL
Procedure: Transfected CHO-dukX cells stably expressing the hCCR2b gene are grown in MEM alpha medium to a confluency of between 70 and 80%. After discarding the medium, 30 ml ice-cold physiological buffer solution containing 1 mM EDTA are added and the cells removed from the plate using a scraper. The cell suspension is centrifuged at 800 g for 10′ at 4° C. and the cell pellet resuspended in buffer. Cell lysis is done using a Polytron PTI300D instrument at 28 000 RPM for 2 times 30 seconds on ice. Membranes are collected by centrifugation at 42 000 g for 20 minutes at 4° C. and subjected to a second round of lysis (Polytron, 28 000 RPM, 2×30 seconds on ice). Following centrifugation at 42 000 g for 20 minutes at 4° C. the membranes are resuspended in buffer at a protein concentration of 2 mg/ml and stored at −80° C. Ten millimolar stock solutions of test compounds in 100% DMSO are prepared. Test compounds are further diluted in buffer to yield the four-fold concentrated solutions for the tests that assayed a range of 10^−10 to 10^−5 M. The SPA assay is performed in a final volume of 200 μl per well in 96 well plates. The components are added per well in the following order: • 50 μl Buffer (+/−test compound) • 50 μl Wheat germ agglutinin-SPA beads (1.25 mg/well) in buffer • 50 μl CCR2B membrane suspension diluted with buffer to 0.04 mg/ml (2 μg/well), alternatively 50,000 cells per well • 50 μl [^125I] MCP-1 in buffer (60 pM final concentration, 2.5 μCi/plate)
After addition of all components the plate is sealed and incubated for 90 minutes at room temperature with constant shaking. Following incubation the plate is centrifuged at 1000 RPM in a Sorvall RC3B centrifuge for 4 minutes at room temperature and counted for 3 minutes per well in a TOP COUNT instrument (Packard). The quench-corrected counts are used for the analysis of radioligand binding.

[2] = target: T2, Human CCR5 (Homo sapiens, UniProt P51681); assay: CCR5 membrane binding assay ([I-125]MIP-1α); settings: table does not name the assay; b437 says 'in these assays'
T2 construct: expressed in transfected cells; host or cells: CHO K1
Procedure: Human CCR5 is used to generate stable transfectants in CHO K1 cells. Membranes prepared from these CCR5 transfectants are used in a radioligand binding assay using 125-1-MIP-1α as a ligand and the compounds of formula I are tested for inhibitory activity. The data are reported as IC50, i.e. the concentration of compound required to achieve 50% inhibition of [I-125]MIP-1α binding. In this assay, compounds of formula I have an IC50 between 0.004 and 10 μM.

T2 sequence (P51681 whole entry): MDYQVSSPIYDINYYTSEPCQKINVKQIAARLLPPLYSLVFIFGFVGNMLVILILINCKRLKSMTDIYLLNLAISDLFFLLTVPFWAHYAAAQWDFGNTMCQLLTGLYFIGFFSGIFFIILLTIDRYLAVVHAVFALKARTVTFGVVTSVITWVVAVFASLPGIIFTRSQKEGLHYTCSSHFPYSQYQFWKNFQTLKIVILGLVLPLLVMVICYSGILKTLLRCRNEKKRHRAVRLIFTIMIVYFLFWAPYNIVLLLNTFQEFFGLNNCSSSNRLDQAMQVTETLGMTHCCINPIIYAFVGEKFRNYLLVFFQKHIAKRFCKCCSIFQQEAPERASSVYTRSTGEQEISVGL

IC50 [1] [nM] | IC50 [2] [nM] | SMILES
0.8 | – | COCC(C)Oc1ccc2c(COc3cccc4[nH]c(C(=O)N[C@H]5CC[C@](O)(CCN6CC[C@H](O)[C@@H](C)C6)CC5)cc34)coc2c1 (mixture of isomers) [Example 17, 4-[6-((RS)-2-Methoxy-1-methyl-ethoxy)-benzofuran-3-ylmethoxy]-1H-indole-2-carboxylic acid {4-hydroxy-4-[2-((3S,4S)-4-hydroxy-3-methyl-piperidin-1-yl)-ethyl]-cyclohexyl}-amide]
12 | 13.2 | C[C@H]1CN(CC[C@]2(O)CC[C@@H](NC(=O)c3cc4c(OCC5CCC5)cccc4[nH]3)CC2)CC[C@@H]1O [Example 1, 4-Cyclobutylmethoxy-1H-indole-2-carboxylic acid {4-hydroxy-4-[2-((3S,4S)-4-hydroxy-3-methyl-piperidin-1-yl)-ethyl]-cyclohexyl}-amide]
– | 13.8 | C[C@H]1CN(CC[C@]2(O)CC[C@@H](NC(=O)c3cc4c(OCc5ccoc5)cccc4[nH]3)CC2)CC[C@@H]1O [Example 3, 4-(Furan-3-ylmethoxy)-1H-indole-2-carboxylic acid {4-hydroxy-4-[2-((3S,4S)-4-hydroxy-3-methyl-piperidin-1-yl)-ethyl]-cyclohexyl}-amide]
24.3 | 27 | C[C@H]1CN(CC[C@]2(O)CC[C@@H](NC(=O)c3cc4c(OCc5coc6c5C(=O)CCC6)cccc4[nH]3)CC2)CC[C@@H]1O [Example 6, 4-(4-Oxo-4,5,6,7-tetrahydro-benzofuran-3-ylmethoxy)-1H-indole-2-carboxylic acid {4-hydroxy-4-[2-((3S,4S)-4-hydroxy-3-methyl-piperidin-1-yl)-ethyl]-cyclohexyl}-amide]
13.8 | 11.9 | C[C@H]1CN(CC[C@]2(O)CC[C@@H](NC(=O)c3cc4c(OCc5coc6c5C(=O)CC(C)(C)C6)cccc4[nH]3)CC2)CC[C@@H]1O [Example 7, 4-(6,6-Dimethyl-4-oxo-4,5,6,7-tetrahydro-benzofuran-3-ylmethoxy)-1H-indole-2-carboxylic acid {4-hydroxy-4-[2-((3S,4S)-4-hydroxy-3-methyl-piperidin-1-yl)-ethyl]-cyclohexyl}-amide]
10.8 | 58.5 | C[C@H]1CN(CC[C@]2(O)CC[C@@H](NC(=O)c3cc4c(OC[C@@H]5COc6ccccc65)cccc4[nH]3)CC2)CC[C@@H]1O [Example 8, 4-[(S)-1-(2,3-Dihydro-benzofuran-3-yl)methoxy]-1H-indole-2-carboxylic acid {4-hydroxy-4-[2-((3S,4S)-4-hydroxy-3-methyl-piperidin-1-yl)-ethyl]-cyclohexyl}-amide]
2.3 | – | C[C@H]1CN(CC[C@]2(O)CC[C@@H](NC(=O)c3cc4c(OCc5coc6cc(F)cc(F)c56)cccc4[nH]3)CC2)CC[C@@H]1O [Example 11, 4-(4,6-Difluoro-benzofuran-3-ylmethoxy)-1H-indole-2-carboxylic acid {4-hydroxy-4-[2-((3S,4S)-4-hydroxy-3-methyl-piperidin-1-yl)-ethyl]-cyclohexyl}-amide]
0.7 | – | COCCCOc1ccc2c(COc3cccc4[nH]c(C(=O)N[C@H]5CC[C@](O)(CCN6CC[C@H](O)[C@@H](C)C6)CC5)cc34)coc2c1 [Example 19, 4-[6-(3-Methoxy-propoxy)-benzofuran-3-ylmethoxy]-1H-indole-2-carboxylic acid {4-hydroxy-4-[2-((3S,4S)-4-hydroxy-3-methyl-piperidin-1-yl)-ethyl]-cyclohexyl}-amide]
7.4 | – | C[C@H]1CN(CC[C@]2(O)CC[C@@H](NC(=O)c3cc4c(OCc5coc6cc(F)ccc56)cccc4[nH]3)CC2)CC[C@@H]1O [Example 22, 4-(6-Fluoro-benzofuran-3-ylmethoxy)-1H-indole-2-carboxylic acid {4-hydroxy-4-[2-((3S,4S)-4-hydroxy-3-methyl-piperidin-1-yl)-ethyl]-cyclohexyl}-amide]
